The values below come from PMC6677171, “Subunit interactions and arrangements in the fission yeast Mis16–Mis18–Mis19 complex” (Life Science Alliance, 2019).

Assay [1] relates to Mis16–Mis18–Mis19 complex. The assay can be described thus: Competition assay by size-exclusion chromatography: disruption of Mis16–Mis18–Mis19 complex. The class given is binding, S. pombe. The conditions noted are these: preformed complex challenged with peptides from Mis19 N terminus. From the text: It has previously been reported that the interaction between Mis18 and Mis 19 occurs via the N-terminal region of Mis19 binding to the C terminus (coiled-coil) of Mis18 ([Hayashi et al, 2014]). We tried to analyse this interaction in more detail. Given that residues 56–112 of Mis19 are involved interactions with Mis16, we constructed two truncations of Mis19 with half of the remaining N-terminal residues deleted in each case (Mis19^27-C and Mis19^44-C). We first asked if these Mis16–Mis19 constructs could still interact with Mis18 in an affinity pull-down experiment (Figs 6A and S6A). […] We then add Mis18 to the Mis16–Mis19 constructs. […] To further analyse these interactions, we carried out competition assays, challenging preformed Mis16–Mis18–Mis19 complex with peptides from the N terminus of Mis19, analysing the results both by size-exclusion chromatography and affinity pull-down assays. […] To try and pinpoint the residues that might be responsible for the interaction with Mis18, we carried out a sequence alignment of the Mis19 N terminus and noticed two conserved stretches of residues characterised by an IxxxF pattern (motif 1) and LxxF (motif 2) (Fig 7A). The two motifs are coincident with the two truncations we identified: between residues 1–27 and 28–44, respectively. As the N terminus of Mis19 is likely to be solvent-exposed (from our crystal structure), we reasoned that the conserved hydrophobic residues probably participate in protein–protein interactions. To test this, we carried out another set of competition experiments using the intact Mis16–18–19 complex and peptides carrying mutations in motifs 1 and 2, separately or combined (Fig 7B).
Figure 6. The Mis19 N terminus binds Mis18. (A) Mis16–Mis18–Mis19 interactions assessed by pull-down. Input proteins are shown on the left. Binding of Mis16–Mis19 and Mis19 truncations to Mis18 are assessed by pull-down of Mis19 (right). (B) Mis16–19–18 binding assessed by size-exclusion and competition assays. Preformed Mis16–18–19 complex was challenged with peptides derived from the N terminus of Mis19 (indicated). […]

For assay [2], the system named is Mis16–Mis18–Mis19 complex. Briefly: Competition assay by pull-down: disruption of Mis16–Mis18–Mis19 complex. Format: binding, S. pombe. Conditions: preformed Mis16–Mis19–Strep–Mis18 complex challenged with peptide, SDS–PAGE. From the text:
It has previously been reported that the interaction between Mis18 and Mis 19 occurs via the N-terminal region of Mis19 binding to the C terminus (coiled-coil) of Mis18 ([Hayashi et al, 2014]). We tried to analyse this interaction in more detail. Given that residues 56–112 of Mis19 are involved interactions with Mis16, we constructed two truncations of Mis19 with half of the remaining N-terminal residues deleted in each case (Mis19^27-C and Mis19^44-C). We first asked if these Mis16–Mis19 constructs could still interact with Mis18 in an affinity pull-down experiment (Figs 6A and S6A). […] We then add Mis18 to the Mis16–Mis19 constructs. […] To further analyse these interactions, we carried out competition assays, challenging preformed Mis16–Mis18–Mis19 complex with peptides from the N terminus of Mis19, analysing the results both by size-exclusion chromatography and affinity pull-down assays. […]
Figure 6. […] (A) Mis16–Mis18–Mis19 interactions assessed by pull-down. […] Binding of Mis16–Mis19 and Mis19 truncations to Mis18 are assessed by pull-down of Mis19 (right). (B) Mis16–19–18 binding assessed by size-exclusion and competition assays. […]
All in vitro pull-down assays were performed using purified proteins or protein complexes. […] Input and pull-down elution samples were analysed by SDS–PAGE.

For assay [3], the target named is T1, Mis16 (Schizosaccharomyces pombe, UniProt O94244).
T1 construct: double-Strep-Tactin tag (TEV protease-cleavable) (N, cleaved yes); made in house; host or cells: insect cells (baculovirus made in Sf21, expression in Hi5)
The assay can be described thus: Co-expression and affinity pull-down/size-exclusion co-purification of Mis19 deletions with Mis16. Format: binding, S. pombe. Conditions: co-expressed in insect cells, Strep-Tactin tag on Mis16, gel filtration, SDS–PAGE band. From the text:
Figure 2. Mis16–Mis19 contact regions. (A) Crystal structure of Mis16–Mis19 highlighting the Mis19-binding sites. Three putative binding sites A, B, and C (lighter to darker orange from N terminus to C terminus) are indicated. (B) Schematic of the various deletion constructs of Mis19 are used for binding studies showing the positions of sites A, B, and C. (C) Constructs containing affinity-tagged Mis16 and the Mis19 deletions shown above were co-expressed and purified by affinity pull-down and size-exclusion chromatography. SDS–PAGE gel of peak fractions is shown. Asterisks indicate impurities. (D) Close-up of the A- and C-binding sites. The locations of the kis1-1 (R65) and eic1-1 (F102) t.s. mutant residues are shown.
The C-terminal interaction of Mis19 with Mis16 (site C in our nomenclature) has been previously described ([An et al, 2018]). […] To test the contribution of the individual sites to the Mis16–Mis19 interaction, various truncated Mis19 constructs were designed, for which site A, […], or both A and C are missing (Fig 2B). Full-length Mis16 and Mis19C (includes sites A, B, and C, residues 52–112), construct 1 (includes site B and C, residues 66–112), construct 2 (includes binding site B, residues 66–99), and construct 3 (includes site A and B, residues 52–99) were co-expressed in insect cells, as the isolated Mis19 truncations cannot be expressed and purified. The complexes were purified using a Strep-Tactin affinity tag on Mis16 and subsequent gel filtration step. All complexes elute from gel filtration as a single species. […] This site is formed by part of the unstructured region of Mis19 running across the top edge of Mis16.
All proteins were expressed in insect cells using standard procedures. Genes were codon-optimised in all cases (GeneArt). Single protein constructs were cloned in pFastBac vectors (Invitrogen), whereas multi-protein complexes were cloned using the MultiBac system ([Fitzgerald et al, 2006]). The Mis16 protein carried a TEV protease-cleavable double-Strep-Tactin tag at the N terminus for purification purposes. All clones were sequence verified. […]

For assay [4], the target named is T1, Mis16. The assay can be described thus: ITC binding of peptides to Mis16. More on the design: species or system S. pombe. The conditions noted are these: for binding to Mis16 (in words): 30°C, mutants of the Mis19 C-terminal peptide (residues 97–112). As for the experimental part:
(§1) ITC experiments were performed at 30°C using an iTC200 (MicroCal). Samples were concentrated in a 50 mM Tris, pH 7.5, 100 mM NaCl, 4% glycerol, and […] buffer. Protein concentrations were determined using a spectrophotometer. The concentration of protein complex in the ITC cell was 26 μM. The lyophilised peptides of histone H4^27–50 or Mis19^97–112 were dissolved in the ITC buffer to a concentration of 260 μM. 3-μl injections were performed at 1,000 rpm stirring speed with an injection spacing of 3 min. The thermodynamic data were processed with the ORIGIN program (MicroCal).

The target of assay [5] is T1, Mis16. Briefly: ITC competition between H4α1 and Mis19 site C peptides for Mis16. The class given is binding, S. pombe. The conditions noted are these: Mis16 preincubated with one peptide before titration of the second, 30°C, pH 7.5. As for the experimental part: Figure 3.
as §1

Where [6] appears, read: ITC, 50 mM Tris, pH 7.5, 100 mM NaCl, 4% glycerol.

“Also recorded” adds a separate entry of the source. Where no end group is shown, it is not given here.

T1 sequence (O94244 whole entry): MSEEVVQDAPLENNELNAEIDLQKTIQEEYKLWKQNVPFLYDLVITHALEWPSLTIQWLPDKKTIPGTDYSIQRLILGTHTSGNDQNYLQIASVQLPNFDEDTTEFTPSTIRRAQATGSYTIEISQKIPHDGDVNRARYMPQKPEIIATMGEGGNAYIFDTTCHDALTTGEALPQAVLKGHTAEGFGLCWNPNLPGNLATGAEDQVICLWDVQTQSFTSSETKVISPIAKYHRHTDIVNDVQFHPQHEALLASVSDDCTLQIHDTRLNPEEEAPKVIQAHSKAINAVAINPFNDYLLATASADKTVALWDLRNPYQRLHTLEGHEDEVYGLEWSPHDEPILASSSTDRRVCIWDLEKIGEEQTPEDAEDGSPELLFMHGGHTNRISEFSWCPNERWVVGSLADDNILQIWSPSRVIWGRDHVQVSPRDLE

Turning to “Mis19^28–44: peptide from the N terminus of Mis19 (NLQQFDAILKRLERRRF)”, the “disruption of preformed Mis16–Mis18–Mis19 complex (size-exclusion)” value (“disruption … (size-exclusion)” for short) in assay [1] is recorded as “no effect on complex formation”. For the same substance, the “disruption of preformed Mis16–Mis18–Mis19 complex (pull-down)” value in assay [2] was “no effect on complex formation”.

Take “construct 1: Mis19 deletion, includes site B and C, residues 66–112 (EFGVKDNHNHPINLHSLRSKSLIRAQGKKLDLHNRVFLRRNVRAVKM; UniProt O42995 66-112, looked up, fragment)”: the “association with Mis16” value in assay [3] is reported as “Mis19 is associated with Mis16”.

As to “Mis19 R105A: point mutant of the Mis19 C-terminal peptide (residues 97–112) (LHNRVFLRANVRAVKM)”, the “binding to Mis16 (in words)” value in assay [4] (setting [6]) was “substantially reduced binding”.

On to “construct 2: Mis19 deletion, includes binding site B, residues 66–99 (EFGVKDNHNHPINLHSLRSKSLIRAQGKKLDLHN; UniProt O42995 66-99, looked up, fragment)”, for which the “association with Mis16” value in assay [3] is given as “only Mis16 could be detected”.

In the case of LHNRSFLRRNVRAVKM [Mis19 V101S], in assay [4] (setting [6]), the “binding to Mis16 (in words)” value is listed as “reduced but did not abolish binding”.

Turning to LHNRVFLRRNVRAVKM [Mis19α2], the “competition / displacement of the other peptide from Mis16 (in words)” value in assay [5] is on record as “capable of competing out histone H4α1”. Also, in assay [4] (ratio of KD values, Mis16, ITC), the “increase in affinity over H4α1” value came to 3.6 fold.

“Mis19^1–44: peptide from the N terminus of Mis19 (MDLMPLEKARAIEIAFDNVFHNTKIPDNLQQFDAILKRLERRRF)”: the “disruption … (size-exclusion)” value in assay [1] was “effectively disrupts the complex, splitting it into a Mis18-containing and Mis16–Mis19–containing fractions”.

As for LHNRVSLRRNVRAVKM [Mis19 F102S], in assay [4] (setting [6]), the “binding to Mis16 (in words)” value was “reduced but did not abolish binding”.

Consider “Mis19^1–27: peptide from the N terminus of Mis19 (MDLMPLEKARAIEIAFDNVFHNTKIPD)”, for which, in assay [1], the “disruption … (size-exclusion)” value is reported as “no effect on complex formation”. For the same substance, the “disruption of preformed Mis16–Mis18–Mis19 complex (pull-down)” value in assay [2] is listed as “no effect on complex formation”.

In the case of “Mis19 V101S F102S R105A: triple mutant of the Mis19 C-terminal peptide (residues 97–112) (LHNRSSLRANVRAVKM; UniProt O42995 97-112, looked up, variant V101S F102S R105A)”, the “binding to Mis16 (in words)” value in assay [4] (setting [6]) is listed as “completely abolished the interaction”. Further, in assay [4] (ITC, iTC200, 30°C, 50 mM Tris, pH 7.5, 100 mM NaCl, 4% glycerol, 0.5 TCEP, 26 μM in cell, peptide 260 μM, 3-μl injections, 1,000 rpm, spacing 3 min), the KD result is “no binding”.

In the case of “construct 3: Mis19 deletion, includes site A and B, residues 52–99 (PRVYETELLVLRFREFGVKDNHNHPINLHSLRSKSLIRAQGKKLDLHN; UniProt O42995 52-99, looked up, fragment)”, in assay [3], the “association with Mis16” value is listed as “Mis19 is associated with Mis16; also recorded: still able to interact with Mis16, although rather more weakly than the full-length protein”.
